Reference: publication PMC8041433 (Environmental Health Perspectives, 2021)
Where “and” joins values, the source holds several entries; their conditions need not be identical. Equal entries are not always repeated. Structures can show the parent of a compound that is named as a salt. Where two headings read alike, the source gives them in different places.

Columns and labels:
[1] = molecular target: T1, recombinant human AChE (Homo sapiens, UniProt P22303); assay: biochemical
[2] = molecular target: AChE in SH-SY5Y cells (Homo sapiens, UniProt P22303); assay: cell-based
[3] = molecular target: T1, recombinant human AChE

AChE in SH-SY5Y cells, sequence (P22303 32-614): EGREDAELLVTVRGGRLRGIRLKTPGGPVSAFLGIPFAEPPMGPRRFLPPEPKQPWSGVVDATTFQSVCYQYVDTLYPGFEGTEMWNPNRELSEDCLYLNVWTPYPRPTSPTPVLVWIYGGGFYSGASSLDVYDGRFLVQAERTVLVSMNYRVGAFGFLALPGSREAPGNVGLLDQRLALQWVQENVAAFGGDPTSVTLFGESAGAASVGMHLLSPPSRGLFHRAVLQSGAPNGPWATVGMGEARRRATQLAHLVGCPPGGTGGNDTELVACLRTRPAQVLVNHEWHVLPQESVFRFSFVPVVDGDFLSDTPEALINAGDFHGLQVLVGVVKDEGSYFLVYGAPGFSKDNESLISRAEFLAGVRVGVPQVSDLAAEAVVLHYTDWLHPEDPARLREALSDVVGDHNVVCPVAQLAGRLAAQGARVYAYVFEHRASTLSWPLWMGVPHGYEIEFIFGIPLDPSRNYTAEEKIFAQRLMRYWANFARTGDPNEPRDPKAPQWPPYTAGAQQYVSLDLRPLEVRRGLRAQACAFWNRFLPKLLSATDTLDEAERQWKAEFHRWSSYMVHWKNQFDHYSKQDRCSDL
T1 sequence (P22303 32-614): as above

Structure (SMILES)	CC-v2 (curve classes) [1]	Efficacy [1]	IC50 ([1]; IC50 (uM))	IC50 ([2]; IC50 (uM))	CC-v2 (curve classes) [3]	Efficacy [3]	CC-v2 (curve classes) [2]	AChE inhibition (result in words) [1]	IC50 ([1]; read-out: IC50)	IC50 ([2]; read-out: IC50)	IC50 [3]
Cc1ccc(CCn2c3c(c4cc(Cl)ccc42)CN(C)CC3)cn1 [Dorastine]	-2.4	-32.475	38.9 µM	34.7 µM and 30.9 µM	4	-6.925	–	–	–	–	–
CCCCOc1ccc(C(=O)CCN2CCCCC2)cc1 [Dyclonine hydrochloride]	-2.2	-57.155	27.5 µM	12.3 µM and 13.8 µM	4	0	-2.1	–	–	–	–
CCOP(=S)(Oc1ccc([N+](=O)[O-])cc1)c1ccccc1 (stereo not shown) [EPN]	4	0	–	–	-1.1	-95.341	4	did not show effects	–	–	–
O=S1OC[C@@H]2[C@H](CO1)[C@]1(Cl)C(Cl)=C(Cl)[C@@]2(Cl)C1(Cl)Cl (stereo partly shown) [Endosulfan I]	-1.1	-101.477	–	–	-3	-117.846	-1.1	–	–	–	–
CN1C[C@H](C(=O)N[C@]2(C)O[C@@]3(O)[C@@H]4CCCN4C(=O)[C@H](Cc4ccccc4)N3C2=O)C=C2c3cccc4[nH]cc(c34)C[C@H]21 [Ergotamine D-tartrate]	–	–	29.5 µM and 5.67 µM	8.32 µM and 1.01 µM and 3.72 µM and 1.13 µM and 0.898 µM	4	0	-1.1	–	–	–	–
CC[n+]1c(-c2ccccc2)c2cc(N)ccc2c2ccc(N)cc21 [Ethidium bromide]	-2.2	–	30.9 µM and 79.3 µM	19.5 µM and 31.6 µM and 17.4 µM	4	–	-2.1	–	–	–	–
CCSCc1ccccc1OC(=O)NC [Ethiofencarb]	-1.1	-87.381	20 µM	10 µM and 17.8 µM	4	-27.523	-1.1 and -2.1	–	–	–	–
Oc1ccc(C(O)CNCCCCCCNCC(O)c2ccc(O)c(O)c2)cc1O (stereo not shown) [Hexoprenaline sulfate]	4	0	–	38.9 µM and 30.9 µM	4	0	–	–	–	–	–
O=C(C[S+]([O-])Cc1ccco1)NC/C=C\COc1cc(CN2CCCCC2)ccn1 (stereo not shown) [Lafutidine]	-2.2	-35.592	34.7 µM	38.9 µM and 27.5 µM and 17.4 µM	4	0	-2.1	–	–	–	–
C=CCN1CC[C@]23CCCC[C@H]2[C@H]1Cc1ccc(O)cc13 [Levallorphan]	4	-27.829	–	–	4	0	-2.1	–	–	–	–
CCN(CC)C(=O)[C@@H]1C=C2c3cccc4[nH]cc(c34)C[C@H]2N(C)C1 [Lysergide]	-2.2	-56.682	104 µM	73.8 µM and 93 µM	4	-29.643	-2.1	–	–	–	–
COc1nn(CSP(=S)(OC)OC)c(=O)s1 [Methidathion]	4	0	–	63.3 µM and 79.6 µM and 71 µM and 56.4 µM and 39.9 µM and 35.6 µM and 44.8 µM and 50.2 µM	4	–	–	–	–	–	–
COP(=O)(OC)Oc1ccc([N+](=O)[O-])cc1 [Methylparaoxon]	-1.1	-92.551	–	–	-2.1	-96.544	-1.1	–	–	–	–
CN(C)c1ccc(C(=C2C=CC(=[N+](C)C)C=C2)c2ccc(N(C)C)cc2)cc1.[Cl-] [Methylrosaniline chloride]	-2.1	-113.882	–	–	4	0	–	–	30.9 µM	38.9 µM	–
CC[C@@H](CO)NC(=O)[C@@H]1C=C2c3cccc4c3c(cn4C)C[C@H]2N(C)C1 [Methysergide]	-1.1	-98.745	4.36 µM	0.389 µM and 0.245 µM and 2.45 µM	4	-23.381	-1.1	–	–	–	–
CNC(=O)/C=C(\C)OP(=O)(OC)OC [Monocrotophos]	-2.2	-46.284	63.3 µM	39.9 µM and 35.6 µM	4	-13.186	-2.1	–	–	–	–
Cc1nccn1CC1CCc2c(c3ccccc3n2C)C1=O (stereo not shown) [Ondansetron]	4	-23.749	–	30.9 µM and 34.7 µM and 38.9 µM	4	0	–	–	–	–	–
CCOP(=O)(OCC)Oc1ccc([N+](=O)[O-])cc1 [Paraoxon]	-1.1	–	–	–	-1.1	–	-1.1	–	–	–	–
CCCCCC1Nc2cc(C(F)(F)F)c(S(N)(=O)=O)cc2S(=O)(=O)N1 (stereo not shown) [Penflutizide]	-2.2	-58.761	21.9 µM	15.5 µM and 13.8 µM	4	-21.532	-2.1	–	–	–	–
CCOP(=S)(OCC)SCSCC [Phorate]	4	-23.652	–	63.3 µM and 71 µM	4	0	-2.1	–	–	–	–
Nc1c(NC/C=C\COc2cc(CN3CCCCC3)ccn2)c(=O)c1=O [Pibutidine]	-2.2	-32.846	15.1 µM	13.5 µM and 15.1 µM	4	0	-2.1	–	–	–	–
Cc1nc2ccccn2c(=O)c1CCN1CCC(C(=O)c2ccc(F)cc2)CC1 [Pirenperone]	-2.4	-31.06	38.9 µM	17.4 µM and 24.5 µM	4	0	-2.1	–	–	–	–
O=S(=O)([O-])SSS(=O)(=O)[O-].[K+].[K+] [Potassium tetrathionate]	-2.2	-73.38	–	–	-2.1	-82.524	-2.1	–	71 µM	71 µM and 79.6 µM	71 µM
CCCN[C@H]1CCc2nc(N)sc2C1 [Pramipexole dihydrochloride monohydrate]	4	-20.242	–	–	4	-16.414	-2.1	–	–	–	–
COc1cc2nc(N3CCN(C(=O)c4ccco4)CC3)nc(N)c2cc1OC [Prazosin]	–	-14.406	–	15.1 µM and 16.9 µM and 9.52 µM	–	0	–	–	–	–	–
CC(C)Nc1nc(Cl)nc(NC(C)C)n1 [Propazine]	-2.2 and 4	–	71 µM	31.7 µM and 25.2 µM and 28.3 µM	4	0	-2.1 and 4	–	–	–	–
COCCCN1CCC(NC(=O)c2cc(Cl)c(N)c3c2OCC3)CC1 [Prucalopride]	-2.4	-37.421	–	17.4 µM	4	0	-2.1	–	–	–	–
